target: MAPK14 (human) (UniProt Q16539); experiment: Enzyme Assay
Sequence (Q16539 whole entry, looked up): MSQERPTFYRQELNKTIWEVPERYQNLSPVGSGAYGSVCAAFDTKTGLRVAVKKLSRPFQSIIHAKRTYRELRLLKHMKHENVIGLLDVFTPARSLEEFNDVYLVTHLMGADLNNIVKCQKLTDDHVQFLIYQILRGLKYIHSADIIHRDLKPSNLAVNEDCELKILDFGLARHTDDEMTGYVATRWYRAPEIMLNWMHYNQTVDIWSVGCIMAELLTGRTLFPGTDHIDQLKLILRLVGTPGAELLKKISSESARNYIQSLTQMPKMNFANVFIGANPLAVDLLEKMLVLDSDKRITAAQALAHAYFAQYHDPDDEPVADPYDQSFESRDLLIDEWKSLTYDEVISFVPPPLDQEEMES

IC50, < 10 nM:
C[C@H]1CCCCN1c1nnc2ccc(O[C@@H]3CC[C@H](NC(=O)Nc4cc(C(C)(C)C)nn4-c4cccc(CCN5CCCC5)c4)c4ccccc43)cn12
Cc1ccc(-n2nc(C(C)(C)C)cc2NC(=O)N[C@H]2CC[C@@H](Oc3ccc4nnc(N(C)CCN5CCOCC5)n4c3)c3ccccc32)cc1
C[C@H]1CCCCN1c1nnc2ccc(O[C@@H]3CC[C@H](NC(=O)Nc4cc(C(C)(C)C)nn4-c4cccc(CN5CCC(F)CC5)c4)c4ccccc43)cn12
Cc1ccc(-n2nc(C(C)(C)C)cc2NC(=O)N[C@H]2CC[C@@H](Oc3ccc4nnc([C@@H]5CCCN5C)n4c3)c3ccccc32)cc1
CCN(C)Cc1ccc(-n2nc(C(C)(C)C)cc2NC(=O)N[C@H]2CC[C@@H](Oc3ccc4nnc(N5CCCC[C@@H]5C)n4c3)c3ccccc32)cc1
Cc1ccc(-n2nc(C(C)(C)C)cc2NC(=O)N[C@H]2CC[C@@H](Oc3ccc4nnc(CCN5CCN(C)CC5)n4c3)c3ccccc32)cc1
C[C@H]1CCCCN1c1nnc2ccc(O[C@@H]3CC[C@H](NC(=O)Nc4cc(C(C)(C)C)nn4CCO)c4ccccc43)cn12
CC(C)(C)c1cc(NC(=O)N[C@H]2CC[C@@H](Oc3ccc4nnc(N5CCCCC5)n4c3)c3ccccc32)n(-c2cnn(CCN3CCOCC3)c2)n1
C[C@H]1CCCCN1c1nnc2ccc(O[C@@H]3CC[C@H](NC(=O)Nc4cc(C(C)(C)C)nn4-c4cccc(CN5CCCC5)c4)c4ccccc43)cn12
Cc1ccc(-n2nc(C(C)(C)C)cc2NC(=O)N[C@H]2CC[C@@H](Oc3ccc4nnc(N5CC[C@@H](O)C5)n4c3)c3ccccc32)cc1
Cc1ccc(-n2nc(C(C)(C)C)cc2NC(=O)N[C@H]2CC[C@@H](Oc3ccc4nnc([C@@H]5CCN(C)C5)n4c3)c3ccccc32)cc1
CCN(C)CCOc1cccc(-n2nc(C(C)(C)C)cc2NC(=O)N[C@H]2CC[C@@H](Oc3ccc4nnc(N5CCCC[C@@H]5C)n4c3)c3ccccc32)c1
CN(C)CCn1cc(-n2nc(C(C)(C)C)cc2NC(=O)N[C@H]2CC[C@@H](Oc3ccc4nnc(N5CCCCC5)n4c3)c3ccccc32)cn1
C[C@H]1CCCCN1c1nnc2ccc(O[C@@H]3CC[C@H](NC(=O)Nc4cc(C(C)(C)C)nn4-c4ccc(CN5CCC(F)CC5)cc4)c4ccccc43)cn12
Cc1ccc(-n2nc(C(C)(C)C)cc2NC(=O)N[C@H]2CC[C@@H](Oc3ccc4nnc([C@H]5CCCN5C)n4c3)c3ccccc32)cc1
Cn1cc(-n2nc(C(C)(C)C)cc2NC(=O)N[C@H]2CC[C@@H](Oc3ccc4nnc(N5CCCCC5)n4c3)c3ccccc32)cn1
Cc1ccc(-n2nc(C(C)(C)C)cc2NC(=O)N[C@H]2CC[C@@H](Oc3ccc4nnc(-c5ccc(CN6CCOCC6)cc5)n4c3)c3ccccc32)cc1
C[C@@H]1CCC[C@H](C)N1c1nnc2ccc(O[C@@H]3CC[C@H](NC(=O)Nc4cc(C(C)(C)C)nn4CCN4CCOCC4)c4ccccc43)cn12
C[C@H]1CCCCN1c1nnc2ccc(O[C@@H]3CC[C@H](NC(=O)Nc4cc(C(C)(C)C)nn4C)c4ccccc43)cn12
C[C@H]1CCCCN1c1nnc2ccc(O[C@@H]3CC[C@H](NC(=O)Nc4cc(C(C)(C)C)nn4-c4cccc(OCCN5CCC(F)CC5)c4)c4ccccc43)cn12
COCCN(C)Cc1cccc(-n2nc(C(C)(C)C)cc2NC(=O)N[C@H]2CC[C@@H](Oc3ccc4nnc(N5CCCC[C@@H]5C)n4c3)c3ccccc32)c1
Cc1ccc(-n2nc(C(C)(C)C)cc2NC(=O)N[C@H]2CC[C@@H](Oc3ccc4nnc(N5CCN(C)CC5)n4c3)c3ccccc32)cc1
CC(C)(C)c1cc(NC(=O)N[C@H]2CC[C@@H](Oc3ccc4nnc(N5CCCCC5)n4c3)c3ccccc32)n(-c2cccc(CN3CCCCC3)c2)n1
Cc1ccc(-n2nc(C(C)(C)C)cc2NC(=O)N[C@H]2CC[C@@H](Oc3ccc4nnc(-c5cccc(CN6CCOCC6)c5)n4c3)c3ccccc32)cc1
C[C@H]1CCCCN1c1nnc2ccc(O[C@@H]3CC[C@H](NC(=O)Nc4cc(C(C)(C)C)nn4-c4cccc(CN(C)C)c4)c4ccccc43)cn12
C[C@H]1CCCCN1c1nnc2ccc(O[C@@H]3CC[C@H](NC(=O)Nc4cc(C(C)(C)C)nn4CCN4CCN(C)CC4)c4ccccc43)cn12
CN1CCC[C@H]1c1nnc2ccc(O[C@@H]3CC[C@H](NC(=O)Nc4cc(C(C)(C)C)nn4-c4cccc(OCCO)c4)c4ccccc43)cn12
Cc1ccc(-n2nc(C(C)(C)C)cc2NC(=O)N[C@H]2CC[C@@H](Oc3ccc4nnc(C(C)(C)N5CCCC5)n4c3)c3ccccc32)cc1
COC1CCN(CCOc2cccc(-n3nc(C(C)(C)C)cc3NC(=O)N[C@H]3CC[C@@H](Oc4ccc5nnc(N6CCCC[C@@H]6C)n5c4)c4ccccc43)c2)CC1
CCN1CCC[C@H]1c1nnc2ccc(O[C@@H]3CC[C@H](NC(=O)Nc4cc(C(C)(C)C)nn4-c4ccc(C)cc4)c4ccccc43)cn12
Cc1ccc(-n2nc(C(C)(C)C)cc2NC(=O)N[C@H]2CC[C@@H](Oc3cc(C)c4nnc([C@@H]5CCCN5C)n4c3)c3ccccc32)cc1
Cc1ccc(-n2nc(C(C)(C)C)cc2NC(=O)N[C@H]2CC[C@@H](Oc3ccc4nnc(N5CCC[C@@H](CO)C5)n4c3)c3ccccc32)cc1
CN1CCC[C@H]1c1nnc2ccc(O[C@@H]3CC[C@H](NC(=O)Nc4cc(C(C)(C)C)nn4-c4ccc(CO)cc4)c4ccccc43)cn12
CC(C)N(c1nnc2ccc(O[C@@H]3CC[C@H](NC(=O)Nc4cc(C(C)(C)C)nn4-c4cccc(OCCN(C)C)c4)c4ccccc43)cn12)C(C)C
CN1CCC[C@H]1c1nnc2ccc(O[C@@H]3CC[C@H](NC(=O)Nc4cc(C(C)(C)C)nn4-c4cccc(SCCO)c4)c4ccccc43)cn12
C[C@H]1CCCCN1c1nnc2ccc(O[C@@H]3CC[C@H](NC(=O)Nc4cc(C(C)(C)C)nn4-c4ccc(CN5CCCC5)cc4)c4ccccc43)cn12
Cc1ccc(-n2nc(C(C)(C)C)cc2NC(=O)N[C@H]2CC[C@@H](Oc3ccc4nnc(-c5ccccc5CN5CCOCC5)n4c3)c3ccccc32)cc1
Cc1ccc(-n2nc(C(C)(C)C)cc2NC(=O)N[C@H]2CC[C@@H](Oc3ccc4nnc([C@H]5COCCN5C)n4c3)c3ccccc32)cc1
C[C@H]1CCCCN1c1nnc2ccc(O[C@@H]3CC[C@H](NC(=O)Nc4cc(C(C)(C)C)nn4-c4cccc(CCN5CCN(C)CC5)c4)c4ccccc43)cn12
CC(C)(C)c1cc(NC(=O)N[C@H]2CC[C@@H](Oc3ccc4nnc(N5CCCCC5)n4c3)c3ccccc32)n(-c2cccc(CN3CCN(CCO)CC3)c2)n1
Cc1ccc(-n2nc(C(C)(C)C)cc2NC(=O)N[C@H]2CC[C@@H](Oc3ccc4nnc([C@@H]5CCCN5CCCO)n4c3)c3ccccc32)cc1
